Experimental findings from patent publication US6472348B1, “Pyridone derivatives and herbicides” (Kumiai Chemical Industry Co., Ltd., priority 1996, dated 2002) are described below.

Structures are written as SMILES.

Holding throughout (assay type): in vivo
Experiment [1] has as its system pale smartweed (Po). In words: Test Example 2: herbicidal effects by upland field soil treatment.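 Also: grade of growth control; 5 = at least 90%; 4 = 70 to 90%; 3 = 50 to 70%; 2 = 30 to 50%; 1 = 10 to 30%; 0 = under 10%.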 As to conditions: 100 g of the active ingredient per 10 ares. From the text: (§1) (Test on Herbicidal Effects by Upland Field Soil Treatment)
The subject of experiment [2] is Digitaria ciliaris (Di). Described as above. As to conditions: 100 g of the active ingredient per 10 ares.
Source text: as §1

For experiment [3], the system named is slender amaranth (Am). Described as above. The note with it: 100 g of the active ingredient per 10 ares.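 Also: grade of growth control; 5 = at least 90%; 4 = 70 to 90%; 3 = 50 to 70%; 2 = 30 to 50%; 1 = 10 to 30%; 0 = under 10%.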
Source text: as §1

The test system of experiment [4] is common lambsquarters (Ch). Described as above. As to conditions: 100 g of the active ingredient per 10 ares.
Source text: as §1

Experiment [5] has as its system barnyardgrass (Ec). Described as above. As to conditions: 100 g of the active ingredient per 10 ares.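 Also: grade of growth control; 5 = at least 90%; 4 = 70 to 90%; 3 = 50 to 70%; 2 = 30 to 50%; 1 = 10 to 30%; 0 = under 10%.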
Source text: as §1

In experiment [6] the test system is rice flatsedge (Ci). Described as above. As to conditions: 100 g of the active ingredient per 10 ares.
Source text: as §1

In experiment [7] the test system is pale smartweed (Po). In words: Test Example 7: crop plant selectivity by upland field soil treatment (corn), herbicidal effects. The note with it: 21st day after application. Also noted: scale not given here. In a few lines: (§2)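 Scoring of weed kill and corn injury was done on day 21 after the application, using defined standards. Before that, sown seeds in sand-filled pots were covered with soil, treated, and grown in a greenhouse.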

Experiment [8] has as its system green foxtail (Se). The experiment is described as above. Set-up: scale not given here. As to conditions: 21st day after application. An outline of the steps: as §2
Experiment [9] deals with common lambsquarters (Ch). Described as above. Set-up: scale not given here. The note with it: 21st day after application. An outline of the steps:
as §2

For experiment [10], the system named is China jute (Ab). The description is as above. Set-up: scale not given here. The note with it: 21st day after application. An outline of the steps:
as §2

Setting [11] is: evaluated on the 21st day after application.
Where [12] appears, read: 21st day after the application, index 0-5 of Table 47.
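For Herbicidal effects Di in this document: grade of growth control; 5 = at least 90%; 4 = 70 to 90%; 3 = 50 to 70%; 2 = 30 to 50%; 1 = 10 to 30%; 0 = under 10%.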

Regarding `C#CC(C)Oc1cc(-c2cn(C)c(C(F)(F)F)cc2=O)c(F)cc1Cl` (racemic) [Compound 6-10], the “Herbicidal effects Po” value in experiment [1] (setting [11]) amounted to 5. The “Herbicidal effects Di” value in experiment [2] (setting [11]) turned out to be 5. Also, the “Herbicidal effects Am” value in experiment [3] (setting [11]) turned out to be 5. Also, in experiment [4] (setting [11]), the “Herbicidal effects Ch” value is 5. In addition, the “Herbicidal effects Ec” value in experiment [5] (setting [11]) is reported as 5. For the same molecule, the “Herbicidal effects Ci” value in experiment [6] (setting [11]) is 5.

With `COc1cc(-c2ccc(C(F)(F)F)n(C)c2=O)c(F)cc1Cl` [1-15], the “Herbicidal effects Po” value in [7] (dose 1.6 g ai/10a) and in experiment [1] (setting [12]) was 5 in each case. The “Herbicidal effects Se” value in experiment [8] (dose 1.6 g ai/10a) was 5. The “Herbicidal effects Ch” value in experiment [9] (dose 1.6 g ai/10a) and in experiment [4] (setting [12]) was 5 each time. Also, the “Herbicidal effects Ab” value in [10] (dose 1.6 g ai/10a) is 5. In addition, the “Herbicidal effects Di” value in [2] (setting [12]) was determined as 5. The “Herbicidal effects Am” value in experiment [3] (setting [12]) stood at 5. The “Herbicidal effects Ec” value in experiment [5] (setting [12]) is recorded as 5. In addition, the “Herbicidal effects Ci” value in experiment [6] (setting [12]) is reported as 5.

Consider `C=CCOc1cc(-c2ccc(C(F)(F)F)n(C)c2=O)c(F)cc1Cl` [1-16], for which the “Herbicidal effects Po” value in experiment [7] (dose 1.6 g ai/10a), in experiment [7] (dose 6.3 g ai/10a) and in experiment [1] (setting [12]) was 5 throughout. Besides, the “Herbicidal effects Se” value in experiment [8] (dose 1.6 g ai/10a) and in experiment [8] (dose 6.3 g ai/10a) was 5 in each case. Further, the “Herbicidal effects Ch” value in experiment [9] (dose 1.6 g ai/10a), in experiment [9] (dose 6.3 g ai/10a) and in [4] (setting [12]) was 5 each time. Also, the “Herbicidal effects Ab” value in experiment [10] (dose 1.6 g ai/10a) and in experiment [10] (dose 6.3 g ai/10a) was 5 each time. Further, in experiment [2] (setting [12]), the “Herbicidal effects Di” value is 5. Further, in experiment [3] (setting [12]), the “Herbicidal effects Am” value is given as 5. In addition, the “Herbicidal effects Ec” value in experiment [5] (setting [12]) turned out to be 5. For the same molecule, the “Herbicidal effects Ci” value in experiment [6] (setting [12]) is listed as 5.

Consider `C#CCOc1cc(-c2ccc(C(F)(F)F)n(C)c2=O)c(F)cc1Cl` [1-18], for which the “Herbicidal effects Po” value in [7] (dose 1.6 g ai/10a), in experiment [7] (dose 6.3 g ai/10a) and in [1] (setting [12]) was 5 each time. Moreover, the “Herbicidal effects Se” value in experiment [8] (dose 1.6 g ai/10a) and in experiment [8] (dose 6.3 g ai/10a) was 5 each time. Also, the “Herbicidal effects Ch” value in [9] (dose 1.6 g ai/10a), in [9] (dose 6.3 g ai/10a) and in experiment [4] (setting [12]) was 5 in each case. Besides, the “Herbicidal effects Ab” value in experiment [10] (dose 1.6 g ai/10a) and in experiment [10] (dose 6.3 g ai/10a) was 5 each time. The “Herbicidal effects Di” value in [2] (setting [12]) was determined as 5. Moreover, the “Herbicidal effects Am” value in [3] (setting [12]) is given as 5. In addition, in experiment [5] (setting [12]), the “Herbicidal effects Ec” value was 5. For the same molecule, the “Herbicidal effects Ci” value in experiment [6] (setting [12]) is given as 5.

For the molecule `Cn1c(C(F)(F)F)ccc(-c2cc(OCC#N)c(Cl)cc2F)c1=O` [1-25], the “Herbicidal effects Po” value in experiment [7] (dose 6.3 g ai/10a) and in experiment [1] (setting [12]) was 5 throughout. Besides, in [8] (dose 6.3 g ai/10a), the “Herbicidal effects Se” value worked out at 5. In addition, the “Herbicidal effects Ch” value in [9] (dose 6.3 g ai/10a) and in experiment [4] (setting [12]) was 5 throughout. Besides, in experiment [10] (dose 6.3 g ai/10a), the “Herbicidal effects Ab” value is on record as 5. The “Herbicidal effects Di” value in [2] (setting [12]) stood at 5. Also, in experiment [3] (setting [12]), the “Herbicidal effects Am” value was determined as 5. Further, in experiment [5] (setting [12]), the “Herbicidal effects Ec” value is recorded as 5. Moreover, the “Herbicidal effects Ci” value in experiment [6] (setting [12]) is listed as 5.

Turning to `C#CCOc1cc(-c2ccc(C(F)(F)F)n(C)c2=O)c(Cl)cc1Cl` [1-30], the “Herbicidal effects Po” value in experiment [7] (dose 1.6 g ai/10a), in experiment [7] (dose 6.3 g ai/10a) and in experiment [1] (setting [12]) was 5 in each case. Besides, the “Herbicidal effects Se” value in experiment [8] (dose 1.6 g ai/10a) and in [8] (dose 6.3 g ai/10a) was 5 throughout. Moreover, the “Herbicidal effects Ch” value in experiment [9] (dose 1.6 g ai/10a), in experiment [9] (dose 6.3 g ai/10a) and in experiment [4] (setting [12]) was 5 throughout. Besides, the “Herbicidal effects Ab” value in experiment [10] (dose 1.6 g ai/10a) and in experiment [10] (dose 6.3 g ai/10a) was 5 each time. The “Herbicidal effects Di” value in [2] (setting [12]) came out at 5. The “Herbicidal effects Am” value in experiment [3] (setting [12]) came to 5. Besides, the “Herbicidal effects Ec” value in experiment [5] (setting [12]) was 5. In addition, the “Herbicidal effects Ci” value in experiment [6] (setting [12]) worked out at 5.

Regarding `CC(C)Sc1cc(-c2ccc(C(F)(F)F)n(C)c2=O)c(F)cc1Cl` [1-43], the “Herbicidal effects Po” value in experiment [7] (dose 6.3 g ai/10a) and in experiment [1] (setting [12]) was 5 in each case. Besides, the “Herbicidal effects Se” value in experiment [8] (dose 6.3 g ai/10a) was found to be 5. The “Herbicidal effects Ch” value in experiment [9] (dose 6.3 g ai/10a) and in experiment [4] (setting [12]) was 5 throughout. Further, in experiment [10] (dose 6.3 g ai/10a), the “Herbicidal effects Ab” value is 4. Also, the “Herbicidal effects Di” value in experiment [2] (setting [12]) came to 5. In addition, in experiment [3] (setting [12]), the “Herbicidal effects Am” value was 5. Also, the “Herbicidal effects Ec” value in experiment [5] (setting [12]) stood at 5. Also, the “Herbicidal effects Ci” value in [6] (setting [12]) was found to be 5.

For the molecule `C#CCSc1cc(-c2ccc(C(F)(F)F)n(C)c2=O)c(F)cc1Cl` [1-44], the “Herbicidal effects Po” value in experiment [7] (dose 6.3 g ai/10a) and in experiment [1] (setting [12]) was 5 in each case. Also, the “Herbicidal effects Se” value in experiment [8] (dose 6.3 g ai/10a) came to 5. Also, the “Herbicidal effects Ch” value in experiment [9] (dose 6.3 g ai/10a) and in [4] (setting [12]) was 5 in each case. Further, the “Herbicidal effects Ab” value in experiment [10] (dose 6.3 g ai/10a) is 5. Also, the “Herbicidal effects Di” value in experiment [2] (setting [12]) was determined as 5. In addition, the “Herbicidal effects Am” value in experiment [3] (setting [12]) was 5. Moreover, the “Herbicidal effects Ec” value in experiment [5] (setting [12]) is 5. In addition, in [6] (setting [12]), the “Herbicidal effects Ci” value is 5.

As to `CCOC(=O)c1cc(-c2ccc(C(F)(F)F)n(C)c2=O)c(F)cc1Cl` [1-65], the “Herbicidal effects Po” value in experiment [7] (dose 1.6 g ai/10a), in [7] (dose 6.3 g ai/10a) and in experiment [1] (setting [12]) was 5 in each case. For the same molecule, the “Herbicidal effects Se” value in [8] (dose 1.6 g ai/10a) and in experiment [8] (dose 6.3 g ai/10a) was 5 throughout. Besides, the “Herbicidal effects Ch” value in experiment [9] (dose 1.6 g ai/10a), in experiment [9] (dose 6.3 g ai/10a) and in [4] (setting [12]) was 5 throughout. Further, the “Herbicidal effects Ab” value in experiment [10] (dose 1.6 g ai/10a) and in [10] (dose 6.3 g ai/10a) was 5 throughout. The “Herbicidal effects Di” value in experiment [2] (setting [12]) came to 5. Further, in [3] (setting [12]), the “Herbicidal effects Am” value is 5. Besides, the “Herbicidal effects Ec” value in experiment [5] (setting [12]) came to 5. Also, the “Herbicidal effects Ci” value in experiment [6] (setting [12]) is 5.
